Test results reported in PubChem BioAssay (NCI).
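Briefly, cells in 96-well plates were exposed to five compound concentrations for 48 h, and endpoints were estimated by linear interpolation. TGI denotes the concentration required for complete inhibition of growth.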

Tests used:
Assay in all cases: growth of human tumour cells (NCI), 48 h
HS 578T breast = system: HS 578T breast
MCF7 breast = system: MCF7 breast
NCI-H522 lung = system: NCI-H522 lung
RXF 393 renal = system: RXF 393 renal
HOP-92 NSCLC = system: HOP-92 NSCLC
SF-295 CNS = system: SF-295 CNS
SK-OV-3 ovarian = system: SK-OV-3 ovarian
HOP-18 NSCLC = system: HOP-18 NSCLC
RXF-631 renal = system: RXF-631 renal
DMS 114 small cell lung = system: DMS 114 small cell lung
LXFL 529 NSCLC = system: LXFL 529 NSCLC
DLD-1 colon = system: DLD-1 colon
XF 498 CNS = system: XF 498 CNS
KM20L2 colon = system: KM20L2 colon
DMS 273 small cell lung = system: DMS 273 small cell lung
M19-MEL melanoma = system: M19-MEL melanoma
SNB-78 CNS = system: SNB-78 CNS

SMILES | TGI (HS 578T breast) | TGI (MCF7 breast) | TGI (NCI-H522 lung) | TGI (RXF 393 renal) | TGI (HOP-92 NSCLC) | TGI (SF-295 CNS) | TGI (SK-OV-3 ovarian) | TGI (HOP-18 NSCLC) | TGI (RXF-631 renal) | TGI (DMS 114 small cell lung) | TGI (LXFL 529 NSCLC) | TGI (DLD-1 colon) | TGI (XF 498 CNS) | TGI (KM20L2 colon) | TGI (DMS 273 small cell lung) | TGI (M19-MEL melanoma) | TGI (SNB-78 CNS)
Cc1cccc2c(=O)c3c(O)cc4c(c3n(C)c12)C=CC(C)(C)O4 | > 100 µM | > 100 µM | > 100 µM | 38 µM | > 100 µM | > 100 µM | > 100 µM | – | – | – | – | – | – | – | – | – | –
Nc1c(O)c(C(=O)O)cc2ccccc12 | > 100 µM | 24.2 µM | 54.2 µM | > 100 µM | > 100 µM | > 100 µM | > 100 µM | – | – | – | – | – | – | – | – | – | –
CCCCn1c2c(n(CCCC)c1=[Se])-c1c(n(CCCC)c(=[Se])n1CCCC)S[Se][Se]S2 | 80.5 µM | > 69 µM | 3.34 µM | > 71.4 µM | 5.93 µM | 30.9 µM | 58 µM | – | – | – | – | – | – | – | – | – | –
C/C(CC(O)(C(F)(F)F)C(F)(F)F)=N/Nc1ccc([N+](=O)[O-])cc1[N+](=O)[O-] | 7.85 µM | > 10 µM | > 10 µM | 7.53 µM | 4.7 µM | > 10 µM | 6.3 µM | – | – | – | – | – | – | – | – | – | –
NC1=CN(Cc2ccccc2)C2=N/C(=C\c3ccco3)C(=O)N12 | > 100 µM | > 100 µM | > 100 µM | > 100 µM | > 100 µM | > 100 µM | > 100 µM | – | – | – | – | – | – | – | – | – | –
CC(=O)Nc1ccc2c3c(cc(O)c2c1)N(C(=O)CCCCCC(=O)Nc1ccc2c4c(cc(O)c2c1)N(C(=O)OC(C)(C)C)CC4CCl)CC3CCl (stereo unspecified) | > 26.9 µM | > 35.5 µM | 5.78 µM | 2.69 µM | 23.7 µM | > 45.9 µM | > 47.6 µM | – | – | – | – | – | – | – | – | – | –
CC(=O)c1cccc(NC(=O)/C(=N\NC(=S)NN)C2C(=O)Nc3ccccc3S2=O)c1 (stereo unspecified) | > 100 µM | > 100 µM | > 100 µM | > 100 µM | > 100 µM | > 100 µM | > 100 µM | – | – | – | – | – | – | – | – | – | –
CCCNC(=O)c1cc(NC(=O)c2cc(NC(=O)CCS(=O)(=O)OC)cn2C)cn1C | > 100 µM | > 100 µM | 6.07 µM | 29 µM | 47 µM | > 100 µM | 22.8 µM | – | – | – | – | – | – | – | – | – | –
CC1OC(n2cnc3c(N)nc(Cl)nc32)C(C)(O)C1O (stereo unspecified) | > 25 µM | > 25 µM | > 25 µM | > 25 µM | > 25 µM | > 25 µM | > 25 µM | – | – | – | – | – | – | – | – | – | –
CCN(CC)c1ccc2cc(-c3csc(-c4ccc(N(C)C)cc4)n3)c(=O)oc2c1 | > 100 µM | > 100 µM | > 100 µM | > 100 µM | > 100 µM | > 100 µM | > 100 µM | – | – | – | – | – | – | – | – | – | –
CCOC(=O)C1C(=O)c2cccc(OC)c2C2COC(=O)N12 (stereo unspecified) | – | – | > 100 µM | > 100 µM | > 100 µM | > 100 µM | > 100 µM | > 100 µM | > 100 µM | > 100 µM | > 100 µM | > 100 µM | > 100 µM | > 100 µM | > 100 µM | > 100 µM | –
NCCSc1nc(N)c2ncn(C3OC(CO)C(O)C3O)c2n1 (stereo unspecified) | – | – | > 100 µM | – | > 100 µM | > 100 µM | > 100 µM | > 100 µM | – | > 100 µM | – | > 100 µM | > 100 µM | > 100 µM | > 100 µM | > 100 µM | > 100 µM
COc1ccc(-c2cc(-c3ccccc3)nc(N)n2)c(O)c1 | > 100 µM | > 100 µM | > 100 µM | > 100 µM | > 100 µM | > 100 µM | > 100 µM | – | – | – | – | – | – | – | – | – | –
CC(=O)NC1=CC(=O)C=C(Cl)C1=O | > 100 µM | 82.4 µM | 84 µM | > 100 µM | > 100 µM | > 100 µM | > 100 µM | – | – | – | – | – | – | – | – | – | –
COc1cc(N(CCC#N)CCC#N)ccc1/C(N=Nc1cccc(C)c1)=N\NC(=O)c1ccc(C)cc1 | > 100 µM | > 100 µM | > 100 µM | > 100 µM | > 100 µM | > 100 µM | > 100 µM | – | – | – | – | – | – | – | – | – | –
Cc1ccc(S(=O)(=O)N/N=C2\CC3C4CCC3C2C4)cc1 (stereo unspecified) | > 100 µM | > 100 µM | > 100 µM | > 100 µM | > 100 µM | > 100 µM | > 100 µM | – | – | – | – | – | – | – | – | – | –
Nc1nc2c(ncn2CC(CO)CC(c2ccccc2)P(=O)(O)O)c(=O)[nH]1 (stereo unspecified) | – | – | > 100 µM | > 100 µM | > 100 µM | > 100 µM | > 100 µM | > 100 µM | – | > 100 µM | > 100 µM | > 100 µM | > 100 µM | > 100 µM | > 100 µM | > 100 µM | > 100 µM
N#CCCN(CCC#N)c1ccc(/C=C2\N=C(c3ccccc3)N(c3ccccc3)C2=O)cc1 | 87.6 µM | > 100 µM | > 100 µM | > 100 µM | > 100 µM | > 100 µM | > 100 µM | – | – | – | – | – | – | – | – | – | –
C=[N+](CNC(=O)CNC(=O)C(Cc1ccccc1)NC(=O)OC(C)(C)C)C(=O)CNC(=O)C(Cc1ccccc1)NC(=O)OC(C)(C)C (stereo unspecified) | > 100 µM | > 100 µM | > 100 µM | > 100 µM | > 100 µM | > 100 µM | > 100 µM | – | – | – | – | – | – | – | – | – | –
CCOC(=O)C(C(=O)OCC)C(NC(=O)Nc1cc(C(F)(F)F)ccc1OC)(C(F)(F)F)C(F)(F)F | > 100 µM | > 100 µM | 55.9 µM | 62.3 µM | 55.8 µM | 84.8 µM | > 100 µM | – | – | – | – | – | – | – | – | – | –
O=C(CC(C(=O)c1cccs1)c1ccccc1)c1ccccc1O (stereo unspecified) | > 22.9 µM | > 38.7 µM | 10.4 µM | 27.9 µM | > 38.9 µM | > 27.9 µM | > 100 µM | – | – | – | – | – | – | – | – | – | –
